Data as given in ChEMBL document CHEMBL4382231, “Chemical preparation, biological evaluation and 3D-QSAR of ethoxysulfuron derivatives as novel antifungal agents targeting acetohydroxyacid synthase” (Eur J Med Chem, 2019).
≈ marks a conversion by molar mass, not a printed value. Calls of active or inactive are those of the source. The rule behind the calls is not given here.

Key:
Candida albicans [1] = experiment: Antifungal activity against fluconazole-resistant Candida albicans isolate g5 cultured in YNB media after 24 hrs by broth microdilution method; type: functional
Candida albicans [2] = experiment: Antifungal activity against fluconazole-resistant Candida albicans isolate g5 cultured in YNB media after 48 hrs by broth microdilution method; type: functional
Candida albicans [3] = experiment: Antifungal activity against fluconazole-resistant Candida albicans isolate 17 cultured in YNB media after 24 hrs by broth microdilution method; type: functional
Candida albicans [4] = experiment: Antifungal activity against Candida albicans SC5314 cultured in YNB media after 72 hrs by broth microdilution method; type: functional
Candida albicans [5] = experiment: Antifungal activity against fluconazole-resistant Candida albicans isolate g5 cultured in YNB media after 72 hrs by broth microdilution method; type: functional
Saccharomyces cerevisiae [6] = experiment: Antifungal activity against Saccharomyces cerevisiae SC XH1549 cultured in YNB media after 24 hrs by broth microdilution method; type: functional; conditions: SC XH1549, 24 h
Candida parapsilosis [7] = experiment: Antifungal activity against Candida parapsilosis ATCC 22019 cultured in YNB media after 72 hrs by broth microdilution method; type: functional
Candida albicans [8] = experiment: Antifungal activity against Candida albicans SC5314 cultured in YNB media after 48 hrs by broth microdilution method; type: functional
Candida albicans [9] = experiment: Antifungal activity against fluconazole-resistant Candida albicans isolate 17 cultured in YNB media after 72 hrs by broth microdilution method; type: functional
Saccharomyces cerevisiae [10] = experiment: Antifungal activity against Saccharomyces cerevisiae SC XH1549 cultured in YNB media after 72 hrs by broth microdilution method; type: functional
Candida albicans [11] = experiment: Antifungal activity against fluconazole-resistant Candida albicans isolate 17 cultured in YNB media after 48 hrs by broth microdilution method; type: functional
Candida parapsilosis [12] = experiment: Antifungal activity against Candida parapsilosis ATCC 22019 cultured in YNB media after 24 hrs by broth microdilution method; type: functional; conditions: Lodderomyces parapsilosis, ATCC 22019, 24 h
Candida parapsilosis [13] = experiment: Antifungal activity against Candida parapsilosis ATCC 22019 cultured in YNB media after 48 hrs by broth microdilution method; type: functional
Saccharomyces cerevisiae [14] = experiment: Antifungal activity against Saccharomyces cerevisiae SC XH1549 cultured in YNB media after 48 hrs by broth microdilution method; type: functional
Candida albicans [15] = experiment: Antifungal activity against Candida albicans SC5314 cultured in YNB media after 24 hrs by broth microdilution method; type: functional; conditions: SC5314, 24 h
[16] = Inhibition of Candida albicans AHAS catalytic subunit using pyruvate as substrate measured after 30 mins by colorimetric method
Candida albicans [17] = experiment: Ratio of MIC for Candida albicans SC5314 cultured in RPMI 1640 media to MIC for Candida albicans SC5314 cultured in YNB media; type: functional
Candida albicans [18] = experiment: Antifungal activity against Candida albicans SC5314 cultured in RPMI 1640 media after 24 hrs by broth microdilution method; type: functional; conditions: SC5314, 24 h
Candida albicans [19] = experiment: Antifungal activity against Candida albicans SC5314 infected in Caenorhabditis elegans assessed as mortality at 20 nM after 24 hrs by propidium iodide staining based fluorescence microscopic analysis (reference value: 17%); type: functional
[20] = Toxicity in po dosed rat; type: organism-based; conditions: in vivo
[21] = Toxicity in topically applied rabbit; design: species or system Oryctolagus cuniculus; conditions: in vivo, topical or ocular
[22] = Lodderomyces parapsilosis, ATCC 22019, 72 h
[23] = Lodderomyces parapsilosis, ATCC 22019, 48 h

Row | SMILES | MIC (Saccharomyces cerevisiae [6]) [µg/mL] | MIC (Candida parapsilosis [7]; [22]) [µg/mL] | MIC (Saccharomyces cerevisiae [10]; SC XH1549, 72 h) [µg/mL] | MIC (Candida parapsilosis [12]) [µg/mL] | MIC (Candida parapsilosis [13]; [23]) [µg/mL] | MIC (Saccharomyces cerevisiae [14]; SC XH1549, 48 h) [µg/mL] | MIC (Candida albicans [15]) [µg/mL] | Ki [16] [nM] | MIC (Candida albicans [18]) [µg/mL] | pKi [16] | other results
1 | CCOc1ccccc1OS(=O)(=O)[N-]C(=O)Nc1nc(OC)cc(OC)n1.[Na+] | 5 | 2.5 | 5 | 1.25 | 2.5 | 5 | 0.625 | 22.1 | – | – | MIC (Candida albicans [1]; isolate g5, 24 h): 1.25 µg/mL; MIC (Candida albicans [2]; isolate g5, 48 h): 1.25 µg/mL; MIC (Candida albicans [3]; isolate 17, 24 h): 1.25 µg/mL; MIC (Candida albicans [4]; SC5314, 72 h): 1.25 µg/mL; MIC (Candida albicans [5]; isolate g5, 72 h): 2.5 µg/mL; MIC (Candida albicans [8]; SC5314, 48 h): 1.25 µg/mL; MIC (Candida albicans [9]; isolate 17, 72 h): 2.5 µg/mL; MIC (Candida albicans [11]; isolate 17, 48 h): 2.5 µg/mL
2 | CCOC(=O)c1ccccc1OS(=O)(=O)[N-]C(=O)Nc1nc(OC)cc(OC)n1.[Na+] | 2.5 | 2.5 | 5 | 1.25 | 2.5 | 5 | 1.25 | 6.7 | 25 | 8.17 | MIC (Candida albicans [1]; isolate g5, 24 h): 2.5 µg/mL; MIC (Candida albicans [2]; isolate g5, 48 h): 2.5 µg/mL; Ratio IC50 (Candida albicans [17]): 20; MIC (Candida albicans [3]; isolate 17, 24 h): 2.5 µg/mL; MIC (Candida albicans [4]; SC5314, 72 h): 2.5 µg/mL; MIC (Candida albicans [5]; isolate g5, 72 h): 2.5 µg/mL; MIC (Candida albicans [8]; SC5314, 48 h): 2.5 µg/mL; MIC (Candida albicans [9]; isolate 17, 72 h): 5 µg/mL; MIC (Candida albicans [11]; isolate 17, 48 h): 5 µg/mL; Activity (Candida albicans [19]): 7%
3 | COc1cc(OC)nc(NC(=O)[N-]S(=O)(=O)Oc2ccccc2OCCI)n1.[Na+] | 80 | 20 | > 80 | 5 | 20 | > 80 | 2.5 | 125 | 50 | 6.9 | MIC (Candida albicans [1]; isolate g5, 24 h): 5 µg/mL; MIC (Candida albicans [2]; isolate g5, 48 h): 10 µg/mL; Ratio IC50 (Candida albicans [17]): 20; MIC (Candida albicans [3]; isolate 17, 24 h): 5 µg/mL; MIC (Candida albicans [4]; SC5314, 72 h): 10 µg/mL; MIC (Candida albicans [5]; isolate g5, 72 h): 20 µg/mL; MIC (Candida albicans [8]; SC5314, 48 h): 5 µg/mL; MIC (Candida albicans [9]; isolate 17, 72 h): 20 µg/mL; MIC (Candida albicans [11]; isolate 17, 48 h): 10 µg/mL
4 | OC(Cn1cncn1)(Cn1cncn1)c1ccc(F)cc1F [FLUCONAZOLE] | 0.25 (≈ 0.816 µM) | – | – | 0.25 (≈ 0.816 µM) | – | – | 0.25 (≈ 0.816 µM) | – | 0.25 (≈ 0.816 µM) | – | MIC (Candida albicans [1]): inactive; MIC (Candida albicans [2]): inactive; MIC (Candida albicans [3]): inactive; MIC (Candida albicans [4]): inactive; MIC (Candida albicans [5]): inactive; MIC (Candida parapsilosis [7]): inactive; MIC (Candida albicans [8]): inactive; MIC (Candida albicans [9]): inactive; MIC (Saccharomyces cerevisiae [10]): inactive; MIC (Candida albicans [11]): inactive; MIC (Candida parapsilosis [13]): inactive; MIC (Saccharomyces cerevisiae [14]): inactive; Activity (Candida albicans [19]): 5%
5 | CCOC(=O)c1ccccc1OS(=O)(=O)NC(=O)Nc1nc(OC)cc(OC)n1 | 2.5 (≈ 5.86 µM) | 2.5 (≈ 5.86 µM) | 5 (≈ 11.7 µM) | 1.25 (≈ 2.93 µM) | 2.5 (≈ 5.86 µM) | 5 (≈ 11.7 µM) | 1.25 (≈ 2.93 µM) | 6.3 | – | – | MIC (Candida albicans [1]; isolate g5, 24 h): 2.5 µg/mL (≈ 5.86 µM); MIC (Candida albicans [2]; isolate g5, 48 h): 2.5 µg/mL (≈ 5.86 µM); MIC (Candida albicans [3]; isolate 17, 24 h): 2.5 µg/mL (≈ 5.86 µM); MIC (Candida albicans [4]; SC5314, 72 h): 2.5 µg/mL (≈ 5.86 µM); MIC (Candida albicans [5]; isolate g5, 72 h): 2.5 µg/mL (≈ 5.86 µM); MIC (Candida albicans [8]; SC5314, 48 h): 2.5 µg/mL (≈ 5.86 µM); MIC (Candida albicans [9]; isolate 17, 72 h): 5 µg/mL (≈ 11.7 µM); MIC (Candida albicans [11]; isolate 17, 48 h): 5 µg/mL (≈ 11.7 µM)
6 | C[C@@H]1[C@H](O)[C@@H](C)/C=C/C=C/C=C/C=C/C=C/C=C/C=C/[C@H](O[C@@H]2O[C@H](C)[C@@H](O)[C@H](N)[C@@H]2O)C[C@@H]2O[C@](O)(C[C@@H](O)C[C@@H](O)[C@H](O)CC[C@@H](O)C[C@@H](O)CC(=O)O[C@H]1C)C[C@H](O)[C@H]2C(=O)O [AMPHOTERICIN B] | 2.5 (≈ 2.71 µM) | 2.5 (≈ 2.71 µM) | 2.5 (≈ 2.71 µM) | 2.5 (≈ 2.71 µM) | 2.5 (≈ 2.71 µM) | 2.5 (≈ 2.71 µM) | – | – | 1.56 (≈ 1.69 µM) | – | –
7 | CCOc1ccccc1OS(=O)(=O)NC(=O)Nc1nc(OC)cc(OC)n1 [ETHOXYSULFURON] | 5 (≈ 12.6 µM) | 2.5 (≈ 6.28 µM) | 5 (≈ 12.6 µM) | 1.25 (≈ 3.14 µM) | 2.5 (≈ 6.28 µM) | 5 (≈ 12.6 µM) | 0.625 (≈ 1.57 µM) | 21.6 | 12.5 (≈ 31.4 µM) | 7.66 | MIC (Candida albicans [1]; isolate g5, 24 h): 1.25 µg/mL (≈ 3.14 µM); MIC (Candida albicans [2]; isolate g5, 48 h): 1.25 µg/mL (≈ 3.14 µM); MIC (Candida albicans [3]; isolate 17, 24 h): 1.25 µg/mL (≈ 3.14 µM); MIC (Candida albicans [4]; SC5314, 72 h): 1.25 µg/mL (≈ 3.14 µM); MIC (Candida albicans [5]; isolate g5, 72 h): 2.5 µg/mL (≈ 6.28 µM); MIC (Candida albicans [8]; SC5314, 48 h): 1.25 µg/mL (≈ 3.14 µM); MIC (Candida albicans [9]; isolate 17, 72 h): 2.5 µg/mL (≈ 6.28 µM); MIC (Candida albicans [11]; isolate 17, 48 h): 2.5 µg/mL (≈ 6.28 µM); Activity (Candida albicans [19]): 3%
8 | CCOC(=O)c1ccccc1OS(=O)(=O)[N-]C(=O)Nc1nc(Br)cc(OC)n1.[Na+] | – | – | – | – | – | – | > 100 | 10.8 | > 100 | 7.96 | –
9 | COc1cc(Cl)nc(NC(=O)[N-]S(=O)(=O)Oc2ccccc2[N+](=O)[O-])n1.[Na+] | – | – | – | – | – | – | > 100 | 265 | > 100 | 6.58 | –
10 | CCOC(=O)c1ccccc1OS(=O)(=O)[N-]C(=O)Nc1nc(C)cc(C)n1.[Na+] | – | – | – | – | – | – | > 100 | 750 | > 100 | 6.13 | –
11 | CCOC(=O)c1cccc(OS(=O)(=O)[N-]C(=O)Nc2nc(C)cc(C)n2)c1.[Na+] | – | – | – | – | – | – | > 100 | 36800 | > 100 | 4.44 | –
12 | CCOC(=O)c1ccccc1S(=O)(=O)NC(=O)Nc1nc(Cl)cc(OC)n1 [CHLORIMURON ETHYL] | – | – | – | – | – | – | – | – | – | – | LD50 [20]: > 4000 mg/kg; LD50 [21]: > 2000 mg/kg; Activity (Candida albicans [19]): 8%
13 | CCCOC(=O)c1ccccc1OS(=O)(=O)[N-]C(=O)Nc1nc(Br)cc(OC)n1.[Na+] | – | – | – | – | – | – | > 100 | 758 | > 100 | 6.16 | –
14 | Cc1cc(C)nc(NC(=O)[N-]S(=O)(=O)Oc2ccccc2C(=O)OC(C)C)n1.[Na+] | – | – | – | – | – | – | > 100 | 9840 | > 100 | 5 | –
15 | Cc1cc(Cl)nc(NC(=O)[N-]S(=O)(=O)Oc2ccccc2C(=O)OCCI)n1.[Na+] | – | – | – | – | – | – | > 100 | 2330 | > 100 | 5.64 | –
16 | CCCOC(=O)c1ccccc1OS(=O)(=O)[N-]C(=O)Nc1nc(C)cc(C)n1.[Na+] | – | – | – | – | – | – | > 100 | 2690 | > 100 | 5.57 | –
17 | Cc1cc(C)nc(NC(=O)[N-]S(=O)(=O)Oc2ccccc2C(=O)Oc2ccccc2)n1.[Na+] | – | – | – | – | – | – | > 100 | 25700 | > 100 | 4.6 | –
18 | Cc1cc(C)nc(NC(=O)[N-]S(=O)(=O)Oc2ccccc2C(=O)OCCI)n1.[Na+] | – | – | – | – | – | – | > 100 | 15000 | > 100 | 4.82 | –
19 | COc1cc(Cl)nc(NC(=O)[N-]S(=O)(=O)Oc2ccc([N+](=O)[O-])cc2)n1.[Na+] | – | – | – | – | – | – | > 100 | 28000 | > 100 | 4.55 | –
20 | COc1cc(OC)nc(NC(=O)[N-]S(=O)(=O)Oc2ccccc2C(=O)OC(C)C)n1.[Na+] | – | – | – | – | – | – | 20 | 405 | > 100 | 6.4 | –
